Results published in ChEMBL document CHEMBL5537201, “Discovery of Unique Bis-Substituted Aromatic Amide Derivatives as Novel Highly Potent Antibiotics for Combating Methicillin-Resistant Staphylococcus aureus (MRSA)” (J Med Chem, 2024).
In brackets after ≈: the same amount, converted by molar mass. Activity calls are given as the source filed them. No cut-off for these calls is given here.

Experiments:
Staphylococcus aureus [1] = assay: Antimicrobial activity against Staphylococcus aureus ATCC6538 assessed as reduction in bacterial growth incubated for 24 hrs by two-fold broth dilution method; assay type: functional
Staphylococcus aureus [2] = assay: Antibacterial activity against methicillin-resistant Staphylococcus aureus clinical isolate MRS153 infected in C57BL/6N mouse model assessed as improvement in survival rate at 3.125 to 12.5 mg/kg, iv administered as single dose measured for 7 days; assay type: functional, organism-based; conditions: dose 3.125-12.5 mg/kg, time 7.0 day
Staphylococcus aureus [3] = assay: Bactericidal activity against methicillin-resistant Staphylococcus aureus clinical isolate MRS1 at 5 ug/ml measured upto 150 mins; assay type: functional, organism-based; conditions: dose 5.0 µg/ml
[4] = Cytotoxicity against HEK293 cells assessed as reduction in cell viability measured after 24 hrs by CCK-8 method; assay type: toxicity, cell-based; conditions: human
Cell membrane [5] = assay: Induction of inner membrane permeabilization in Staphylococcus aureus ATCC6538 assessed as increase in […] fluorescence at 5 ug/ml by PI staining based analysis; assay type: cell membranes; conditions: dose 5.0 µg/ml
Staphylococcus aureus [6] = assay: Antimicrobial activity against Staphylococcus aureus ATCC6538 assessed as membrane fluidity measured after 35 mins; assay type: functional, organism-based
Staphylococcus aureus [7] = assay: Upregulation of ABC transport family genes in Staphylococcus aureus ATCC6538 at 5 ug/ml incubated for 2 hrs by RNA sequencing analysis; assay type: functional; conditions: dose 5.0 µg/ml
Staphylococcus aureus [8] = assay: Antimicrobial activity against Staphylococcus aureus ATCC6538 assessed as increase in ROS levels measured upto 180 mins in presence of 2,2'-bipyridyl and thiourea by H2DCFDA probe based flow cytometry; assay type: functional, organism-based
Staphylococcus aureus [9] = assay: Antimicrobial activity against methicillin resistant Staphylococcus aureus clinical isolate MRS1 assessed as reduction in bacterial growth incubated for 24 hrs by two-fold broth dilution method; assay type: functional
Staphylococcus aureus [10] = assay: Induction of membrane morphological changes in Staphylococcus aureus ATCC6538 assessed as cell membrane deformation at 5 times of MIC measured after 0.5 hrs by FE-SEM analysis; assay type: functional, organism-based
Staphylococcus aureus [11] = assay: Antimicrobial activity against Staphylococcus aureus ATCC6538 assessed as proton dynamic dissipation at pH 5 to 11; assay type: functional, organism-based
[12] = Toxicity in BALB/c mouse assessed as as effect on spleen at 25 to 50 mg/kg, iv by H and E staining based analysis; assay type: organism-based; conditions: in vivo, dose 25-50 mg/kg
Cell membrane [13] = assay: Induction of cytoplasmic membrane depolarization in methicillin resistant Staphylococcus aureus clinical isolate MRS153 assessed as increase in fluorescence intensity measured upto 120 mins by DiSC3(5) dye based fluorescence method; assay type: cell membranes
Staphylococcus aureus [14] = assay: Antimicrobial activity against methicillin resistant Staphylococcus aureus clinical isolate MRS200 assessed as reduction in bacterial growth incubated for 24 hrs by two-fold broth dilution method; assay type: functional

In the case of `O=C(CCC(F)(F)F)N(Cc1cc2ccccc2s1)c1cc(-c2noc(C(F)(F)F)n2)ccc1O`, the MIC (Staphylococcus aureus [1]) is reported as 0.25 µg/mL (≈ 0.485 µM), the Activity (Staphylococcus aureus [2]) is reported as “Active” and the Activity (Staphylococcus aureus [3]) is reported as “Active”. The IC50 at 24 h [4] was 16.9 µg/mL (≈ 32.8 µM), the Activity (Cell membrane [5]) was “Active” and the Activity (Staphylococcus aureus [6]) was “Active”. The Activity (Staphylococcus aureus [7]) was “Active”, the Activity (Staphylococcus aureus [8]) was “inactive” and the MIC (Staphylococcus aureus [9]) was 1 µg/mL (≈ 1.94 µM). For the same molecule, the Activity (Staphylococcus aureus [10]) was “Active”, the Activity (Staphylococcus aureus [11]) was “Active” and the Activity [12] was “Non-Toxic”. The Activity (Cell membrane [13]) was “Active” and the MIC (Staphylococcus aureus [14]) was 2 µg/mL (≈ 3.88 µM).
